Legend:
Rhodesain = Rhodesain (Trypanosoma brucei rhodesiense, UniProt Q95PM0); experiment: Inhibition of Trypanosoma brucei rhodesiense rhodesain
[1] = Inhibition of Trypanosoma cruzi cruzaine
[2] = Cytotoxicity against african green monkey Vero cells; format: cell-based; details: chlorocebus sabaeus
[3] = target: T1, Cathepsin B-like cysteine protease (Trypanosoma brucei, UniProt Q6R7Z5); experiment: Inhibition of Trypanosoma brucei CatB
T1 sequence (Q6R7Z5 whole entry): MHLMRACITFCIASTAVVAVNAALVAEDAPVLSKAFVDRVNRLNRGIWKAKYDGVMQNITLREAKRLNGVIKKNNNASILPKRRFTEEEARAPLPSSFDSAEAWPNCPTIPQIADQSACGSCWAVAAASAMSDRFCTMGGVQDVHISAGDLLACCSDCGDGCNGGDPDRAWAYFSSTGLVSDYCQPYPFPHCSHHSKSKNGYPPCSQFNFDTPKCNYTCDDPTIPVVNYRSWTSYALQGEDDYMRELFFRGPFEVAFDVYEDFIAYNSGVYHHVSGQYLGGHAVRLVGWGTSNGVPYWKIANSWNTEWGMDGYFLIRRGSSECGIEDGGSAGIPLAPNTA

[4] = system: Trypanosoma brucei brucei; experiment: Antitrypanosomal activity against Trypanosoma brucei brucei; format: functional, organism-based
[5] = Selectivity index, ratio of CC50 for african green monkey Vero cells to IC50 for Trypanosoma brucei brucei; format: functional

Sequence of Rhodesain (Q95PM0 whole entry): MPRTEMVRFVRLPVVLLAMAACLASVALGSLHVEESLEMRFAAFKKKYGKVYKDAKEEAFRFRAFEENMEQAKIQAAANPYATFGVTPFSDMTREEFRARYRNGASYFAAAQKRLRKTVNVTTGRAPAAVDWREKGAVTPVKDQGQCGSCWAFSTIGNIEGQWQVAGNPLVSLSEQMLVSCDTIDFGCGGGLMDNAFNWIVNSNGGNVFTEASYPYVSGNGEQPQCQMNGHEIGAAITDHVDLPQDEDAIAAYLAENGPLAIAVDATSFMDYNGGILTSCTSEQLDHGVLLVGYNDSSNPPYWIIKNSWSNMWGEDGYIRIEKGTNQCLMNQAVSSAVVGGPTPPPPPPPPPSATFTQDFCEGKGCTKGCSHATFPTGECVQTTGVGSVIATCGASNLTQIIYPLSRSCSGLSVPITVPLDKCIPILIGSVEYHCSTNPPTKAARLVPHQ

| Structure (SMILES) | IC50 (Rhodesain) | IC50 [1] | CC50 [2] | IC50 [3] | IC50 [4] | Ratio CC50/IC50 [5] |
| --- | --- | --- | --- | --- | --- | --- |
| C[n+]1c2ccccc2c(NC2CCN(Cc3ccccc3)CC2)c2[nH]c3ccccc3c21.[Cl-] | 4 µM | 8 µM | 2.2 µM | 32 µM | 0.03 µM | 73 |
| CN(C)CCCNc1c2ccccc2[n+](C)c2c1[nH]c1ccccc12.[Cl-] | 6 µM | 14 µM | 2.2 µM | 31 µM | 0.03 µM | 73 |
| CCN(CC)CCCCNc1c2ccccc2[n+](C)c2c1[nH]c1ccccc12.[Cl-] | 6 µM | 22 µM | 10 µM | 55 µM | 0.03 µM | 333 |
| C[n+]1c2ccccc2c(Nc2ccc(N3CCCCC3)cc2)c2[nH]c3ccccc3c21.[Cl-] | 1 µM | 3 µM | 4.8 µM | 76 µM | 0.08 µM | 60 |
| C[n+]1c2ccccc2c(Nc2ccccc2)c2[nH]c3ccccc3c21.[Cl-] | 7 µM | 15 µM | 0.6 µM | 99 µM | 0.3 µM | 2 |
| CC(C)NCCCNc1c2ccccc2[n+](C)c2c1[nH]c1ccccc12.[Cl-] | 26 µM | 42 µM | 3 µM | 62 µM | 0.1 µM | 30 |
| CN(C)CC(C)(C)CNc1c2ccccc2[n+](C)c2c1[nH]c1ccccc12.[Cl-] | 19 µM | 26 µM | 3 µM | 62 µM | 0.3 µM | 10 |
| C[n+]1c2ccccc2cc2[n-]c3ccccc3c21.Cl [CRYPTOLEPINE HYDROCHLORIDE] | 23 µM | 28 µM | 1.1 µM | 64 µM | 2 µM | 0.6 |
| CN(C)CCNc1c2ccccc2[n+](C)c2c1[nH]c1ccccc12.[Cl-] | 7 µM | 23 µM | 5.5 µM | 91 µM | 0.7 µM | 7.9 |
| CCN(CC)Cc1ccc(Nc2c3ccccc3[n+](C)c3c2[nH]c2ccccc23)cc1O.[Cl-] | 5 µM | 10 µM | 0.8 µM | 59 µM | 0.03 µM | 27 |
| C[n+]1c2cc(Cl)ccc2c(NC2CCNCC2)c2[nH]c3ccccc3c21.[Cl-] | 0.5 µM | 1 µM | 4.4 µM | 59 µM | 0.3 µM | 147 |
| CC(CN(C)C)Nc1c2ccccc2[n+](C)c2c1[nH]c1ccccc12.[Cl-] (stereo unspecified) | 5 µM | 10 µM | 3 µM | > 100 µM | 1 µM | 3 |
| C[n+]1c2ccccc2c(NCCCN2CCCCC2)c2[nH]c3ccccc3c21.[Cl-] | 5 µM | 11 µM | 2 µM | 60 µM | 0.06 µM | 33 |
| C[n+]1c2ccccc2c(Nc2cccnc2)c2[nH]c3ccccc3c21.[Cl-] | 2 µM | 5 µM | 2.6 µM | 59 µM | 0.3 µM | 8.6 |
| CCN(CC)CCCNc1c2ccccc2[n+](C)c2c1[nH]c1ccccc12.[Cl-] | 13 µM | 34 µM | 2.5 µM | 97 µM | 0.05 µM | 40 |
| CCN(CC)CCCNc1c2ccc(Cl)cc2[n+](C)c2c1[nH]c1ccccc12.[Cl-] | 0.5 µM | 2 µM | 1.3 µM | 64 µM | 0.02 µM | 65 |
| C[n+]1c2ccccc2c(NC2CCN(Cc3ccccc3O)CC2)c2[nH]c3ccccc3c21.[Cl-] | 0.9 µM | 6 µM | 2.6 µM | 26 µM | 0.04 µM | 65 |
| CC(C)CN1CCC(Nc2c3ccccc3[n+](C)c3c2[nH]c2ccccc23)CC1.[Cl-] | 2 µM | 8 µM | 5 µM | 26 µM | 0.05 µM | 100 |
| C[n+]1c2cc(Cl)ccc2c(NC2CCNCC2)c2[nH]c3cc(Cl)ccc3c21.[Cl-] | 0.5 µM | 1 µM | 0.8 µM | 43 µM | < 0.006 µM | 133 |
| CCN(CC)CCCC(C)Nc1c2ccccc2[n+](C)c2c1[nH]c1ccccc12.[Cl-] (stereo unspecified) | 17 µM | 27 µM | 13 µM | > 100 µM | 0.4 µM | 33 |
| CCN(CC)CCNc1c2ccccc2[n+](C)c2c1[nH]c1ccccc12.[Cl-] | 11 µM | 23 µM | 2.8 µM | 95 µM | 0.9 µM | 3.1 |
| C[n+]1c2ccccc2c(NC2CCNCC2)c2[nH]c3ccccc3c21.[Cl-] | 2 µM | 3 µM | 62 µM | – | 0.01 µM | 6200 |

From ChEMBL document CHEMBL2086347, “Antitrypanosomal and cysteine protease inhibitory activities of alkyldiamine cryptolepine derivatives” (Bioorg Med Chem Lett, 2012)
